According to patent US6686458B2, “Synthetic molecules that specifically react with target sequences” (The Regents of the University of California, priority 1997, dated 2004):

What was measured:
[1] = tested on: target sequence (SEQ ID NO. 1); assay: Fluorescence (quantum yield, excitation and emission maxima) of target sequence/biarsenical molecule complex; format: physicochemical
Experimental: Formation of target sequence/biarsenical molecule (III) complex. Biarsenical molecule (III) (3 μl of 1 mM solution in DMSO) was added to 100 μl of 25 μM target sequence (SEQ. ID NO. 1) in 25 mM phosphate, pH 7.4, 100 mM KCl, 1 mM mercaptoethanesulfonate. After 1.5 hours, the reaction mixture (at room temperature) was injected onto a Dionex IonPac NS1 reverse phase HPLC column, gradient 20% to 46% acetonitrile (0.1% TFA) from 3 to 17 minutes. The complex eluted at 14.7 minutes (Free target sequence elutes at 12.6 minutes.) Mass spectrum analysis indicated a molecular weight of 2414.99 Da and the calculated molecular weight for the 1:1 complex was 2415.33 Da.
Quantum yield of target sequence/biarsenical molecule(III) complex. Solutions of fluorescein in 0.1 N NaOH and of target sequence/biarsenical molecule(III) complex in 25 mM phosphate, pH 7.4 and 100 mM KCl were adjusted to equal absorbances (0.0388) at 499 nm. The ratio of the integrated emission (excitation at 499 nm) of target sequence/biarsenical molecule(III) complex relative to fluorescein was multiplied by 0.9, the quantum yield of fluorescein, giving a quantum yield 0.44 for the target sequence/biarsenical molecule (III) complex.
(§1) This complex has a fluorescence quantum yield of 0.44 with excitation maximum at 508 nm and emission maximum at 528 nm (FIG. 4). The complex was of sufficient stability to remain intact in the presence of up to 100 equivalents of 2,3 dimercapto-1-propanol (BAL). Incubations with BAL were done at room temperature for 15 minutes.
Formation of a complex with target sequence and the dichloro-derivative of the biarsenical molecule (III). Dichloro-derivative of the biarsenical molecule (III) (5 μl of 675 μm solution in DMSO was added to 100 μl of 25 μM target sequence (SEQ ID NO. 1) in 25 mM phosphate, pH 7.4, 100 mM KCl 1 mM mercaptoethanesulfonate. After 1.5 hours, the reaction mixture was injected onto a Dionex IonPac SN1 reverse phase HPLC column, gradient 20% to 46% acetonitrile (0.1% TFA) from 3 to 17 minutes. The complex eluted in two overlapping peaks of the same molecular weight at 16.1 and 16.4 minutes. (Free peptide elutes at 12.6 minutes.) Mass spectrum analysis indicated a molecular weight of 2484.80 Da compared to the calculated molecular weight of the 1:1 complex was 2484.22 Da.

[2] = tested on: target sequence (SEQ ID NO. 1); assay: Stability of biarsenical molecule (III)/target sequence complex to 2,3 dimercapto-1-propanol (BAL); format: physicochemical; conditions: room temperature, 15 minutes; for effect of BAL on complex: 100 nM complex
Experimental: as §1

[3] = molecular target: T1, cyan GFP-target sequence (SEQ ID NO. 4) fusion in HeLa cells (Aequorea victoria, UniProt P42212, F64L/M153T/N146I/N212K/S65T/V163A/Y66W); assay: Measurement of FRET in HeLa cells expressing cyan GFP-target sequence fusion; format: cell-based
T1 construct: expressed in transfected cells; host or cells: HeLa cells, pcDNA3 vector
Text: Expression of Cyan GFP-target sequence fusion in HeLa cells. Using standard molecular biology techniques, the target sequence (SEQ ID NO. 4) (with the tryptophan in SEQ ID NO. 1 replaced by an alanine) was attached to cyan fluorescent protein (CFP). CFP is the Green Fluorescent Protein (GFP) of Aequorea victoria with the following additional mutations: F64L, S65T, Y66W, N146I, M153T, V163A, N212K. Miyawaki A., et al. Nature 388:882-7 (1997). Fusion of the target sequence to the C-terminus of cyan GFP was accomplished using a PCR primer. The PCR primer had the following oligonucleotide sequence 5′-CGGCAATTCTTAGGCCCTGGCGCAGCACTCCCTGCAGCAGGCCTCCCTGGCGGCGGCCTCGGCCTTGTACAGCTCGTCCATGCCC-3′ (SEQ ID NO. 2) encoding for the expression of the target sequence. It was inserted into the pcDNA3 vector (Invitrogen, Carlsbad, Calif.) using HindIII and EcoRl restriction sites. After amplification in DH5 bacteria, it was transfected (at 37° C.) into HeLa cells using the Lipofectin system from GibcoBRL.
Measurement of FRET in HeLa cells. Three days after transfection, a concentration of 1.0 μM biarsenical molecule(III) and 10.0 μM ethanedithiol was applied to the transfected cells. Fluorescence changes were observed using a 440DF20 filter (Omega Optical, Brattleboro, Vt.) and a 4% transmittance neutral density filter for excitation and 480DF30 and 635DF50 filters for emission.
HeLa cells expressing the fusion protein were contacted with biarsenical molecule (III) on a fluorescence microscope stage. […] Upon addition of 1.0 μM biarsenical molecule (III) mixed with 10 μM EDT to inhibit background staining, the intensity of fluorescence at 480 nm decreased as energy was transferred from the CFP to the biarsenical molecule (III) which had reacted with the target sequence. There was a corresponding increase in fluorescence in the 635 nm channel due to biarsenical molecule (III)/target sequence emission. Upon removal of the biarsenical molecule (III) solution, there was little change.

[4] = Fluorescence of the free biarsenical molecule bonded to EDT; format: physicochemical; conditions: before reaction with target sequence
calmodulin+cys4 = molecular target: T2, calmodulin+cys4 (Xenopus laevis, UniProt P0DP33, A11C/A2H/E12C/E7C/E8C); assay: Labeling of calmodulin+cys4 in transfected HeLa cells (fluorescence microscopy); format: cell-based
T2 construct: expressed in transfected cells; host or cells: HeLa cells, pcDNA3 vector
Text: Four cysteines were introduced into the N-terminal α-helix of xenopus calmodulin as shown below:
The mutated calmodulin is referred to as calmodulin+cys4. The substitutions were generated by using as a PCR primer of the following oligonucleotide sequence 5′-CGCGGATCCGCCACCATGCATGACCAACTGACATGCTGCCAGATTTGCTGCTTCAAAGAAGCCTTCTCATTATTC-3′ (SEQ ID NO. 3) encoding for the expression of these substitutions. The nucleic acid sequence encoding the cysteine-substituted calmodulin was inserted into pcDNA3 vector (Invitrogen, Carlsbad, Calif.) using the BamHI and EcoRI restriction sites. After amplification in DH5 bacteria, the vector was transfected (at 37° C.) into HeLa cells using the Lipofectin system from GibcoBRL.
Three days after transfection, the cells were treated with 1 μM biarsenical molecule (III) and 10.0 μM EDT for one hour. […] These lightly stained cells may have expressed the calmodulin+cys4 polypeptide, but at lower levels than the bright cells. […] Removal of the 1.4 neutral density filter was required to see details of the staining of the untransfected cells which appeared to be mitochondrial.

[5] = 1.0 μM biarsenical molecule (III) with 10 μM EDT, excitation 440 nm, transfected HeLa cells

| Compound | emission maximum ([1]; complex with target sequence) [nm] | excitation maximum ([1]; complex with target sequence) [nm] | red shift ([1]; dichloro-derivative compared with biarsenical molecule (III)) [nm] | effect of BAL on complex ([2]; 1 μM BAL) | effect of BAL on complex ([2]; 10 μM BAL) | effect of BAL on complex ([2]; 100 μM BAL) | BAL at which complex remains intact [2] | fluorescence in the 635 nm channel (complex emission) [3, 5] | intensity of fluorescence at 480 nm (CFP emission) [3, 5] | removal of biarsenical molecule from target sequence in cells (reversibility) ([3]; cells treated with 1 mM EDT) | fluorescence of untransfected cells relative to cells expressing the CFP-target sequence fusion ([3]; excitation 480 nm, signal at 535 nm, after subtraction of CFP signal) | fluorescence of free molecule [4] | fluorescence of free molecule ([4]; listed as biarsenical molecule of formula (III)) | fluorescence of transfected cells (calmodulin+cys4; 1 μM biarsenical molecule (III) and 10.0 μM EDT for one hour, HeLa cells transfected with calmodulin+cys4, 480 nm excitation, 535 nm emission) | fluorescence of untransfected cells (calmodulin+cys4; same concentrations of biarsenical molecule (III) and EDT, untransfected HeLa cells) | red shift of fluorescent signal relative to fluorescein ([1]; complex with target sequence) | quantum yield ([1]; complex with target sequence, 25 mM phosphate, pH 7.4, 100 mM KCl, excitation at 499 nm, relative to fluorescein) |
| --- | --- | --- | --- | --- | --- | --- | --- | --- | --- | --- | --- | --- | --- | --- | --- | --- | --- |
| O=C1OC2(c3ccccc31)c1cc(Cl)c(O)c([As]3SCCS3)c1Oc1c2cc(Cl)c(O)c1[As]1SCCS1 [2′,7′-dichloro-4′,5′-bis(2-arsa-1,3-dithiolan-2-yl)fluorescein] | 538 | 518 | 10 | – | – | – | – | – | – | – | – | – | – | – | – | – | – |
| O=C1OC2(c3ccccc31)c1ccc(O)c([As]3SCCS3)c1Oc1c2ccc(O)c1[As]1SCCS1 [biarsenical molecule (III), 4′,5′-bis(2-arsa-1,3-dithiolan-2-yl)fluorescein] | 528 | 508 | – | barely affected | barely affected | significant reduction in fluorescence | up to 100 equivalents | increase | decreased | fast but not complete | about 10% | nonfluorescent | essentially completely nonfluorescent | bright fluorescence | only very light fluorescence | about 20 nm | 0.44 |
